For data set [1], the system named is differentially expressed genes. As to the kind of experiment: CT26 tumor RNA sequencing. Particulars: intratumoral GA treatment. Format: in vivo, BALB/c mice. How it is done:
RNA isolation: RNA was isolated from the tumor as previously described. 22.83Briefly, tumor pieces were stored in RNAlater solution at room temperature for at least one day and then at 4° C. until RNA isolation. Tumor pieces were removed from RNAlater solution and homogenized in 10 mL TRIzol reagent (38% phenol, 0.8 M guanidine thiocyanate, 0.4 M ammonium thiocyanate, 0.1 M sodium acetate, 5% glycerol). Homogenate was divided into 1 mL, 100 μl BCP (Molecular Research Center #BP 151, Cincinnati, OH) was added, shaken vigorously 15 seconds and centrifuged 12,000×g, 10 minutes, 4° C. […] RNA was quantified by Qubit™ using the RNA High Sensitivity Assay Kit (Invitrogen™ #Q32852, Thermo Fisher Scientific Corporation, Eugene, OR) and RNA quality was analyzed using the Agilent 2200 TapeStation (Waldbronn, Germany).
RNA sequencing: The mRNA library preparation was performed with the NEBNext® Stranded mRNA library kit (New England Biolabs, Inc. #E7760, Ipswich, MA), tagged with a unique dual index sequence, and qPCR quantification of the library pool was performed before sequencing. Sequencing was performed on an Illumina NextSeq2000 P3 with single read 75 bp read lengths (KU Genome Sequencing Core). The reads were aligned with Mus musculus UCSC mm9 reference genome using RNA-Seq Alignment workflow (2.0.2, Illumina, San Diego, CA). […]

Data set [2] has as its system EO771 tumors. Briefly: EO771 triple negative breast cancer model, GA dose escalation with anti-PD1. Particulars: mouse, in vivo. Also noted: species or system C57BL/6 mice. How it is done: GA was evaluated for its intratumoral efficacy and dose dependency in tumors alone and in combination with systemic anti-PD1 in the murine Triple negative breast cancer model EO771. EO771 cells were implanted to C57BL/6 mice on Day 0. In this study, two doses of intraperitoneal anti-PD1 (100 μg or 250 μg) and three doses of intratumoral GA (300 μg, 1 mg, 2 mg) were evaluated. Primary tumors were measured by caliper measurement. Tumor volumes were calculated according to the formula, tumor volume (mm^3)=0.52×(width)^2 ×length, where length is the longer of two perpendicular dimensions.

Data set [3] has as its system Clone M3 tumors. As to the kind of experiment: Cloudman M3 (Clone M3) melanoma model. The note with it: through 21 days; 2 mg GA IT x5, 10 mg/kg antibody IP x3. The data set is classed as in vivo, DBA/2N mice.
Protocol: Mice were randomized into treatment groups when tumors reached mean volumes of 50-80 mm^3 at Day 7.
Treatment groups consisted of vehicle control (n=7, 4% mannitol IT plus 10 mg/kg isotype control antibody IP), anti-PD1 alone (n=5, 4% mannitol IT plus 10 mg/kg anti-PD1 IP), GA alone (2 mg GA IT plus 10 mg/kg isotype control IP), or GA+anti-PD1 combination (n=5, 2 mg GA IT plus 10 mg/kg anti-PD1 IP). Intratumoral treatments were administered 5 times at a frequency of 3 times per week and 50 μL per injection beginning on Day 7. Intraperitoneal antibody was given beginning on Day 7 as well, but for a total of 3 times on a frequency of every 3-4 days.
Primary tumors were measured by caliper measurement. Tumor sizes were
calculated according to the formula (W^2×L)/2. Animals were euthanized when any tumor diameter dimension exceeded 1.8 cm.
For data set [4] the following is noted: in vitro; cited from earlier work.
Data set [5] concerns EAE. The note with it: mice; cited from earlier work.
The conditions of data set [6]: mouse, in vivo; cited from earlier work.
For data set [7] the following is noted: in vivo; cited from earlier work.
For data set [8] the following is noted: in vivo; cited from earlier work. This is another data set of the same source.

Consider Glatiramer acetate [GA], for which the “gene expression in the tumors” value in data set [1] was “little discernable effect on gene expression”. Moreover, in data set [2], the “systemic cytokines associated with cytokine release syndrome” value is listed as “does not induce systemic cytokines typically associated with cytokine release syndrome”. The “mouse survival (not exceeding 1750 mm^3 tumor volume or 1.8 cm diameter)” value in data set [3] is reported as “three of five”. In data set [4], the “aggregation in the presence of hyaluronic acid (HA)” value was “form aggregates and precipitate in the presence of HA”. Also, the “effect on EAE” value in data set [5] was “suppress EAE”. Also, the “aggregate formation near the injection site” value in data set [6] is on record as “formed spherical aggregates near the injection site”. In data set [7], the localization after injection entry is listed as “primarily localized at the site of injection”. The systemic exposure result in data set [8] is “negligible systemic exposure”.

Values taken from patent publication US20260028404A1 (UNIVERSITY OF KANSAS, priority 2022, published 2026).
